Reference: patent US20220273793A1, “HORSE IL-31 INDUCED PRURITUS MODEL” (priority 2021, published 2022)
Several values for one entry are separate records, joined by “and”; a condition that tells them apart may be missing. Identical values can stand only once.

Assays:
equine IL-31 = test: Equine challenge study using the IL-31 itch model after IL-31 mimotope vaccines; type: in vivo, Horse; details: for 1st Challenge Score (pruritus score) / 1st Challenge Average % Change in pruritus scores / Percent Change, 1st Challenge vs Historical Score / 2nd Challenge Average % Change in pruritus scores / Percent Change, 2nd Challenge vs Historical Score / 2nd Challenge Score (pruritus score): T03, T05, T06, T07: IM; for 1st Challenge Score (pruritus score): CRM197 conjugate 25 μg/dose, SP oil + CpG, IL-31 challenge Day 14 post-boost; for 1st Challenge Score (pruritus score) / Percent Change, 1st Challenge vs Historical Score / Percent Change, 2nd Challenge vs Historical Score / 2nd Challenge Score (pruritus score): individual horses; for 1st Challenge Average % Change in pruritus scores / Percent Change, 1st Challenge vs Historical Score: Day 14 post-boost; for 1st Challenge Average % Change in pruritus scores / 2nd Challenge Average % Change in pruritus scores: group mean; for 2nd Challenge Average % Change in pruritus scores / Percent Change, 2nd Challenge vs Historical Score: Day 105 post-boost; for 2nd Challenge Score (pruritus score): IL-31 challenge Day 105 post-boost
Sequence of equine IL-31 (as listed by the source): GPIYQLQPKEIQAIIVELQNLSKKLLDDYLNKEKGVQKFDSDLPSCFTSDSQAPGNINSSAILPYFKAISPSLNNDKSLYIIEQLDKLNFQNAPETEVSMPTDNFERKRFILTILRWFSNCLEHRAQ
Text: Based on the high antibody titers elicited by horses vaccinated with CRM197 conjugated IL 31 mimotopes (FIG. 4), horses from the serology studies were utilized in a challenge study using the IL-31 itch model developed by the present inventors. Selected horses were vaccinated with an additional boost of the corresponding mimotope vaccines, after conclusion of the serology study, and were challenged with IL-31 at Day 14 after the final boost and at Day 105 after the final boost.
Various candidate IL-31 mimotope constructs were evaluated, including ZTS-7240 (comprising SEQ ID NO:4) mimotope (constrained) corresponding to the 1505 region and ZTS-241 (comprising SEQ ID NO:6) mimotope (linear) corresponding to the A helix of the IL-31 homology model (FIG. 2). Study design is outlined in Table 6 below:
There were no treatment groups T02 and T04 assigned in this study in order to continue to keep the group designations of respective horses from the first serology study. One horse each from treatment groups T02 and T04 from the first serology were used in treatment group T08 as negative controls (No booster dose given; challenged on Day 14 and Day 105 along with other treatment groups).

IL-31 induced pruritus = test: Oclacitinib maleate in equine model of IL-31 induced pruritus; type: in vivo, Horse; design: key to Post Treatment Score (pruritus): cumulative count of yes responses (1 per behavior per 1-min interval); details: for Post Treatment Score (pruritus) / % Change vs Historical Score: individual horses
Description: Horses were administered either carrier only or oclacitinib maleate tablets at a determined number of hours prior to IL-31 challenge administration. […] Blood samples for pharmacokinetic analysis were collected at the time of IL-31 administration and immediately following the post-challenge observation period. Due to limited number of observation stalls, horses were challenged in batches. Batch 1 will include T01 (n=2)+T02 (n=5). Batch 2 will include T01 (n=2)+T03 (n=5). Batch 3 will include T01 (n=2)+T04 (n=5) (Table 9)
Signs of pruritus in horses include: • Biting or scratching at self • Rubbing against objects • Feet stomping • Tail flicking • Head or body shaking • Rolling • Twitching of skin
A “yes” response was indicated by marking a “1” in the space provided for the specific behavior during the one minute interval. The cumulative number of yes responses per behavior were added to determine a cumulative pruritus score for each horse.

Row | Substance | 1st Challenge Score (pruritus score) (equine IL-31) | 1st Challenge Average % Change in pruritus scores (equine IL-31) [%] | Percent Change, 1st Challenge vs Historical Score (equine IL-31) | 2nd Challenge Average % Change in pruritus scores (equine IL-31) [%] | Percent Change, 2nd Challenge vs Historical Score (equine IL-31) | 2nd Challenge Score (pruritus score) (equine IL-31) | reduction in itch (relative to historic scores) (equine IL-31; vaccinated horses, after 105 days of the final booster dose) [%] | Post Treatment Score (pruritus) (IL-31 induced pruritus; T02: 0.25 mg/kg oral, IL-31 0.25 mcg/kg challenge 1.5 hr after dosing) | % Change vs Historical Score (IL-31 induced pruritus; T02: 0.25 mg/kg oral, challenge 1.5 hr after dosing) | reduction in average pruritic score compared to the placebo group (T01) (IL-31 induced pruritus; T02: 0.25 mg/kg, challenged 1.5 hours after treatment) [%] | Post Treatment Score (pruritus) (IL-31 induced pruritus; T03: 0.25 mg/kg oral, IL-31 0.25 mcg/kg challenge 21.5 hr after dosing) | % Change vs Historical Score (IL-31 induced pruritus; T03: 0.25 mg/kg oral, challenge 21.5 hr after dosing) | reduction in average pruritic score compared to the placebo group (T01) (IL-31 induced pruritus; T03: 0.25 mg/kg, challenged 21.5 hours after treatment) [%] | Post Treatment Score (pruritus) (IL-31 induced pruritus; T04: 0.25 mg/kg oral, IL-31 0.25 mcg/kg challenge 4.5 hr after dosing) | % Change vs Historical Score (IL-31 induced pruritus; T04: 0.25 mg/kg oral, challenge 4.5 hr after dosing) | reduction in average pruritic score compared to the placebo group (T01) (IL-31 induced pruritus; T04: 0.25 mg/kg, challenged 4.5 hours after treatment) [%]
1 | Ac-CGSGKEKGVQKFDS-NH2 (not fully specified; printed as Ac-CGSGKEKGVQKFDS-NH2; numbers in words are those of the source; also: CRM197 conjugate) [ZTS-7242, tested as CRM197 conjugate with SP oil + CpG] | 53 and 45 and 54 | −20.58 | −23.96% and −17.43% and −20.35% | 46.28 | 22.94% and 69.62% | 67 and 115 | – | – | – | – | – | – | – | – | – | –
2 | Ac-C[Ahx]C(mT2b)TEVSMPTDNFERKRFILTC(mT2b)-NH2 [ZTS-7240] | 6 and 21 and 18 | −84.61 | −94.13% and −76.74% and −82.94% | −84.27 | −92.18% and −83.39% and −77.25% | 8 and 15 and 24 | 80 | – | – | – | – | – | – | – | – | –
3 | Oclacitinib maleate | – | – | – | – | – | – | – | 21 and 94 and 91 and 86 and 46 | −68.89% and 6.21% and −5.70% and −9.47% and −31.85% | 30 | 49 and 90 and 86 and 50 and 72 | −3.92% and 65.14% and 17.81% and −29.08% and −5.88% | 29 | 49 and 87 and 46 and 53 and 99 | −55.05% and −22.32% and −54.23% and −45.92% and −6.16% | 31
